According to ChEMBL document CHEMBL1158840, “Cytotoxic prenylflavonoids from Artocarpus elasticus” (2005):
≈ marks a conversion by molar mass, not a printed value. Calls of active or inactive are those of the source. The calls are words filed in the database; no cut-off is given here.

How the values were obtained:
[1] = test system: MCF7; assay: Cytotoxicity against human MCF7 cells by MTT assay; type: functional; conditions: for EC50: read-out: ED50 (the source's name)
[2] = test system: HT-29; assay: Cytotoxicity against human HT-29 cells by MTT assay; type: functional; conditions: for EC50: read-out: ED50 (the source's name)
[3] = test system: Hep 3B2; assay: (§1) Cytotoxicity against human Hep3B cells by MTT assay; type: functional
[4] = test system: A549; assay: Cytotoxicity against human A549 cells by MTT assay; type: functional; conditions: for EC50: read-out: ED50 (the source's name)
[5] = as §1; type: functional, Hep 3B2; conditions: read-out: ED50 (the source's name)

SMILES	Activity [1]	Activity [2]	Activity [3]	Activity [4]	EC50 [1] [mg/L]	EC50 [2] [mg/L]	EC50 [5] [mg/L]	EC50 [4] [mg/L]
COc1cc(O)c2c3c1-c1oc4c(/C=C(\O)C(C)(C)O)c(O)cc(O)c4c(=O)c1C[C@@H]3C(C)(C)O2	inactive	inactive	inactive	inactive	–	–	–	–
C=C(C)C1Cc2c(oc3cc(O)cc(O)c3c2=O)-c2c(O)c3c(c(O)c21)OC(C)(C)C=C3 (stereo not given) [ARTELASTOXANTHONE]	–	–	–	–	3.1 (≈ 7.14 µM)	3.9 (≈ 8.98 µM)	3.2 (≈ 7.37 µM)	10 (≈ 23 µM)
C=C(C)C1CC(=O)c2oc3c4c(cc(O)c3c(=O)c2C1)OC(C)(C)C=C4 (stereo not given) [ARTONOL A]	–	–	–	–	2.7 (≈ 7.66 µM)	3.1 (≈ 8.8 µM)	21.9 (≈ 62.1 µM)	1.1 (≈ 3.12 µM)
CC(=O)C1c2oc3c4c(cc(O)c3c(=O)c2CC2C1C(=O)OC2(C)C)OC(C)(C)C=C4 (stereo not given)	inactive	inactive	inactive	inactive	–	–	–	–
COc1cc(O)c(-c2oc3c(CC=C(C)C)c(O)cc(O)c3c(=O)c2C(O)C=C(C)C)cc1O (stereo not given)	inactive	inactive	inactive	inactive	–	–	–	–
O=c1[nH]cc(F)c(=O)[nH]1 [FLUOROURACIL]	–	–	–	–	0.2 (≈ 1.54 µM)	0.2 (≈ 1.54 µM)	0.6 (≈ 4.61 µM)	0.4 (≈ 3.08 µM)
CC1(C)C=Cc2c(cc(O)c3c(=O)c4c(oc23)-c2c(O)cc(O)c3c2C(C4)C(C)(C)O3)O1 (stereo not given)	inactive	inactive	inactive	inactive	–	–	–	–
C=C(C)C1Cc2c(oc3c(CC=C(C)C)c4c(c(O)c3c2=O)C=CC(C)(C)O4)-c2c(O)cc(O)c(O)c21 (stereo not given)	inactive	inactive	inactive	inactive	–	–	–	–
CC(C)=CCC/C(C)=C/Cc1c2c(c3oc4c(c(=O)c3c1O)CC1c3c(c(O)cc(O)c3-4)OC1(C)C)C=CC(C)(C)O2 (stereo not given)	inactive	inactive	inactive	inactive	–	–	–	–
CC(C)=CCc1c2c(c(O)c3c(=O)c(C(O)C=C(C)C)c(-c4cc(O)c(O)cc4O)oc13)C=CC(C)(C)O2 (stereo not given)	inactive	inactive	inactive	inactive	–	–	–	–
